Measured values published in US7294739B1, “Basic amine esters or oleic acid and their use as anti-inflammatory or immunobodulatory agents” (Teva Pharmacaetical Industries Ltd., priority 2006, dated 2007).

System: Delayed type hypersensitivity (DTH) skin reaction
Test: Inhibition of DTH skin reactions (oxazolone-induced mouse ear swelling test)
Type: in vivo, female Balb/c mice
Details: for % Inf ((diff/baseline measurement)×100) / % Inhibit ([1−(diff/diff of PBS)]×100) / Diff. (average difference between baseline and post treatment ear measurements): 24 hours after challenge; for effectiveness in the DTH skin reaction model: 5-100 mg/ml
Protocol: Delayed type hypersensitivity (DTH), a localized inflammatory reaction induced by cytokines secreted by TH cells when they encounter certain types of antigens, is an established experimental model for skin inflammation.
DTH reactions were induced in the abdomen skin of 8 week old female Balb/c mice. The mice were sensitized first by topical application of 100 μl of a 5% Oxazolone (4-Ethoxymethylene-2-phenyl-2-oxazolin-5-one; Sigma) solution in ethanol/acetone (3:1, vol/vol) to a shaved abdomen. The mice were anesthetized with ip injection of Ketamine (1 ml)+Xylazine (1 ml)+Saline (8 ml), (0.2 ml per 20 g mouse). Anesthetization was performed before the shaving of the abdomen and the first sensitization.
After 4 days the mice were challenged for the second time using 1% Oxazolone (4-Ethoxymethylene-2-phenyl-2-oxazolin-5-one; Sigma) solution in ethanol/acetone (3:1, vol/vol). The solution was pipetted to the shaved abdomen of the mice.
Six days after the first sensitization, the right ear of each mouse was challenged with a topical application of 20 μl (10 μl on each surface of the ear) of a 1% Oxazolone solution in olive oil/acetone (3:1, vol/vol).
Treatment was given 30 min after challenging by applying 40 μl (20 μl on each surface of the ear) of treatment compounds on the challenged ear of each mouse.
After 24 hours, the extent of inflammation was measured using the mouse ear swelling test (caliper) and the percent inhibition induced by the treatment was quantified.
The experiment includes groups treated with 5, 15, 40, and 100 mg/ml of octadec-(Z)-9-enoic acid 4-dimethylaminomethyl-benzyl ester HCl (1c) and groups treated with 5, 15, 40, and 100 mg/ml of octadec-(Z)-9-enoic acid 4-dimethylaminomethyl-phenyl ester HCl (2d). The experiment also includes dexamethasone (2 mg/mouse) as a positive control, one negative control group (PBS, phosphate buffered saline), and one naïve group. There were 6 mice per group. The researchers who performed the measurements were blinded as to the grouping of each mouse.
In Table 1, “diff” refers to average difference between baseline and post treatment measurements in mm; “% Inf” refers to the (diff/baseline measurement)×100; and, “% Inhibit” refers to [1−(diff/diff of PBS)]×100. Baseline measurements of the ear were conducted before the first sensitization.

[1] = topical on challenged ear, treatment 5 mg/ml (0.2 mg/mouse)
[2] = topical on challenged ear, treatment 15 mg/ml (0.6 mg/mouse)
[3] = topical on challenged ear, treatment 40 mg/ml (1.6 mg/mouse)
[4] = topical on challenged ear, treatment 100 mg/ml (4 mg/mouse)
[5] = positive control, dose 2 mg/mouse

Compound | % Inf ((diff/baseline measurement)×100) [1] [%] | % Inhibit ([1−(diff/diff of PBS)]×100) [1] [%] | Diff. (average difference between baseline and post treatment ear measurements) [1] [mm] | % Inf ((diff/baseline measurement)×100) [2] [%] | % Inhibit ([1−(diff/diff of PBS)]×100) [2] [%] | Diff. (average difference between baseline and post treatment ear measurements) [2] [mm] | % Inf ((diff/baseline measurement)×100) [3] [%] | % Inhibit ([1−(diff/diff of PBS)]×100) [3] [%] | Diff. (average difference between baseline and post treatment ear measurements) [3] [mm] | % Inf ((diff/baseline measurement)×100) [4] [%] | % Inhibit ([1−(diff/diff of PBS)]×100) [4] [%] | Diff. (average difference between baseline and post treatment ear measurements) [4] [mm] | effectiveness in the DTH skin reaction model (topical) | most effective doses (DTH skin reaction model, topical) [mg/mL] | % Inf ((diff/baseline measurement)×100) [5] [%] | % Inhibit ([1−(diff/diff of PBS)]×100) [5] [%] | Diff. (average difference between baseline and post treatment ear measurements) [5] [mm]
CCCCCCCC/C=C\CCCCCCCC(=O)OCc1ccc(CN(C)C)cc1.Cl [Compound 1c, Octadec-(Z)-9-enoic acid 4-dimethylaminomethyl-benzyl ester HCl] | 92.65 | 26.74 | 0.20 | 103.21 | 26.01 | 0.20 | 58.56 | 54.82 | 0.12 | 48.19 | 63.37 | 0.10 | effective | – | – | – | –
CCCCCCCC/C=C\CCCCCCCC(=O)Oc1ccc(CN(C)C)cc1.Cl [Compound 2d, Octadec-(Z)-9-enoic acid 4-dimethylaminomethyl-phenyl ester HCl] | 113.46 | 13.31 | 0.24 | 107.18 | 21.25 | 0.22 | 114.66 | 13.31 | 0.24 | 55.96 | 59.10 | 0.11 | effective | 100 | – | – | –
C[C@@H]1C[C@H]2[C@@H]3CCC4=CC(=O)C=C[C@]4(C)[C@@]3(F)[C@@H](O)C[C@]2(C)[C@@]1(O)C(=O)CO [Positive control, dexamethasone, reference compound] | – | – | – | – | – | – | – | – | – | – | – | – | – | – | 20.55 | 84.74 | 0.04
